# Test results as given in ChEMBL document CHEMBL6083275, “Discovery and evaluation of HW161023 as a potent and orally active AAK1 inhibitor” (Bioorg Med Chem Lett, 2024).
# What was measured:
# [1] = molecular target: AP2-associated protein kinase 1 (Homo sapiens, UniProt Q2M2I8); assay: Inhibition of AAK1 (unknown origin)
# [2] = Cmax in C57BL/6J mouse at 10 mg/kg, po; type: ADME, organism-based; conditions: in vivo
# [3] = Tmax in C57BL/6J mouse at 10 mg/kg, po; type: ADME, organism-based; conditions: in vivo
# [4] = AUC (0 to 24 hrs) in C57BL/6J mouse at 10 mg/kg, po; type: ADME, organism-based; conditions: in vivo
# [5] = Half-life in C57BL/6J mouse at 10 mg/kg, po; type: ADME, organism-based; conditions: in vivo
# [6] = Tmax in dog at 5 mg/kg, po; type: ADME, organism-based, Canis lupus familiaris; conditions: in vivo
# [7] = AUC (0 to 24 hrs) in rat at 10 mg/kg, po; type: ADME, organism-based; conditions: in vivo
# [8] = Half-life in dog at 1 mg/kg, iv; type: ADME, organism-based, Canis lupus familiaris; conditions: in vivo
# [9] = molecular target: Voltage-gated inwardly rectifying potassium channel KCNH2 (Homo sapiens, UniProt Q12809); assay: Inhibition of human ERG by patch clamp assay; type: toxicity
# [10] = AUC (0 to 24 hrs) in dog at 5 mg/kg, po; type: ADME, organism-based, Canis lupus familiaris; conditions: in vivo
# [11] = Apparent volume of distribution in rat at 1 mg/kg, iv; type: ADME, organism-based; conditions: in vivo, read-out: Vz
# [12] = Protein binding in human plasma assessed as unbound fraction; type: ADME, cell-free
# [13] = molecular target: MAP kinase-interacting serine/threonine-protein kinase 2 (Homo sapiens) (UniProt Q9HBH9); assay: Inhibition of wildtype MNK2 (unknown origin) at 1 uM relative to control
# [14] = molecular target: MAP kinase-interacting serine/threonine-protein kinase 1 (Homo sapiens) (UniProt Q9BUB5); assay: Inhibition of wildtype MNK1 (unknown origin) at 1 uM relative to control
# [15] = Clearance in C57BL/6J mouse at 1 mg/kg, iv; type: ADME, organism-based; conditions: in vivo
# [16] = Protein binding in mouse plasma assessed as unbound fraction; type: ADME, cell-free
# [17] = Oral bioavailability in dog at 5 mg/kg; type: ADME, organism-based, Canis lupus familiaris; conditions: in vivo
# [18] = Metabolic stability in mouse liver microsomes assessed as half-life; type: ADME, Microsome
# CYP2C9 = CYP2C9 (Homo sapiens, UniProt P11712); assay: Inhibition of CYP2C9 (unknown origin) at 10 uM relative to control; type: ADME
# [19] = Protein binding in rat plasma assessed as unbound fraction; type: ADME, cell-free
# [20] = Metabolic stability in rat liver microsomes assessed as half-life; type: ADME, Microsome
# [21] = Half-life in rat at 1 mg/kg, iv; type: ADME, organism-based; conditions: in vivo
# [22] = Protein binding in dog plasma assessed as unbound fraction; type: ADME, cell-free, Canis lupus familiaris
# [23] = molecular target: Citron Rho-interacting kinase (Homo sapiens) (UniProt O14578); assay: Inhibition of wildtype CRIK (unknown origin) at 1 uM relative to control
# CYP3A4 [24] = molecular target: T1, CYP3A4 (Homo sapiens, UniProt P08684); assay: Inhibition of CYP3A4 (unknown origin) using midazolam as substrate at 10 uM relative to control; type: ADME; conditions: probe midazolam
# [25] = Oral bioavailability in C57BL/6J mouse at 10 mg/kg; type: ADME, organism-based; conditions: in vivo
# [26] = Tmax in rat at 10 mg/kg, po; type: ADME, organism-based; conditions: in vivo
# [27] = molecular target: T2, cGMP-dependent protein kinase 2 (Homo sapiens) (UniProt Q13237); assay: Inhibition of wildtype CGK2 (unknown origin) at 1 uM relative to control
# T2 sequence (whole entry): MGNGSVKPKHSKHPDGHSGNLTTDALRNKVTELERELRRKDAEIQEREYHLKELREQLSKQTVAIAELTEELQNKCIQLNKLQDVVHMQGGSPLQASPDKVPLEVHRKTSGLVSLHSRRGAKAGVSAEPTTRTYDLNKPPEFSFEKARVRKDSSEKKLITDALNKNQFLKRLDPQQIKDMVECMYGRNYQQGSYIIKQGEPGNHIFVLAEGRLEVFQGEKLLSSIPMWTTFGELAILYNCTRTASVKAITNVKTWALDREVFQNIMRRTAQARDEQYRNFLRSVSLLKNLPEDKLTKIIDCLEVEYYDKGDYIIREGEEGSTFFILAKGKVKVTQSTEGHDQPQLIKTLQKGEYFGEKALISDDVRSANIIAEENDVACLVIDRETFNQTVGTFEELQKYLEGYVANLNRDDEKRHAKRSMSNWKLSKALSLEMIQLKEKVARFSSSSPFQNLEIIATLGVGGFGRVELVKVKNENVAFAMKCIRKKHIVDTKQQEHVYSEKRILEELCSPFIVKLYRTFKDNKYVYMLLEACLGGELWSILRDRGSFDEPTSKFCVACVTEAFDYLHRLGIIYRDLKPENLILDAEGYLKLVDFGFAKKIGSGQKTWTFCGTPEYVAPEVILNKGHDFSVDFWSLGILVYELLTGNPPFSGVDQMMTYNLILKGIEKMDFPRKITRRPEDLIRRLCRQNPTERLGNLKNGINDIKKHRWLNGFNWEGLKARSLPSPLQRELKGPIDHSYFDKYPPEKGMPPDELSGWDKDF
# Rattus norvegicus = assay: Analgesic activity in sciatic nerved CCI-induced neuropathic pain rat model assessed as reduction in mechanical hyperalgesia at 10 mg/kg, po administered from day 14 post CCI-surgery and measured after 3.5 to 5.5 hrs by Von Frey test; type: functional, organism-based; conditions: time 3.5-5.5 hrs
# [28] = Metabolic stability in hepatocytes (unknown origin) assessed as half-life; type: ADME, cell-based, Hepatocyte
# CYP3A4 [29] = molecular target: T1, CYP3A4; assay: Inhibition of CYP3A4 (unknown origin) using testosterone as substrate at 10 uM relative to control; type: ADME; conditions: probe testosterone
# [30] = Clearance in dog at 1 mg/kg, iv; type: ADME, organism-based, Canis lupus familiaris; conditions: in vivo
# [31] = Metabolic stability in human liver microsomes assessed as half-life; type: ADME, Microsome
# [32] = Apparent volume of distribution in dog at 1 mg/kg, iv; type: ADME, organism-based, Canis lupus familiaris; conditions: in vivo, read-out: Vz
# [33] = molecular target: T3, Cyclin-G-associated kinase (Homo sapiens) (UniProt O14976); assay: Inhibition of wildtype GAK (unknown origin) at 1 uM relative to control
# T3 sequence (whole entry): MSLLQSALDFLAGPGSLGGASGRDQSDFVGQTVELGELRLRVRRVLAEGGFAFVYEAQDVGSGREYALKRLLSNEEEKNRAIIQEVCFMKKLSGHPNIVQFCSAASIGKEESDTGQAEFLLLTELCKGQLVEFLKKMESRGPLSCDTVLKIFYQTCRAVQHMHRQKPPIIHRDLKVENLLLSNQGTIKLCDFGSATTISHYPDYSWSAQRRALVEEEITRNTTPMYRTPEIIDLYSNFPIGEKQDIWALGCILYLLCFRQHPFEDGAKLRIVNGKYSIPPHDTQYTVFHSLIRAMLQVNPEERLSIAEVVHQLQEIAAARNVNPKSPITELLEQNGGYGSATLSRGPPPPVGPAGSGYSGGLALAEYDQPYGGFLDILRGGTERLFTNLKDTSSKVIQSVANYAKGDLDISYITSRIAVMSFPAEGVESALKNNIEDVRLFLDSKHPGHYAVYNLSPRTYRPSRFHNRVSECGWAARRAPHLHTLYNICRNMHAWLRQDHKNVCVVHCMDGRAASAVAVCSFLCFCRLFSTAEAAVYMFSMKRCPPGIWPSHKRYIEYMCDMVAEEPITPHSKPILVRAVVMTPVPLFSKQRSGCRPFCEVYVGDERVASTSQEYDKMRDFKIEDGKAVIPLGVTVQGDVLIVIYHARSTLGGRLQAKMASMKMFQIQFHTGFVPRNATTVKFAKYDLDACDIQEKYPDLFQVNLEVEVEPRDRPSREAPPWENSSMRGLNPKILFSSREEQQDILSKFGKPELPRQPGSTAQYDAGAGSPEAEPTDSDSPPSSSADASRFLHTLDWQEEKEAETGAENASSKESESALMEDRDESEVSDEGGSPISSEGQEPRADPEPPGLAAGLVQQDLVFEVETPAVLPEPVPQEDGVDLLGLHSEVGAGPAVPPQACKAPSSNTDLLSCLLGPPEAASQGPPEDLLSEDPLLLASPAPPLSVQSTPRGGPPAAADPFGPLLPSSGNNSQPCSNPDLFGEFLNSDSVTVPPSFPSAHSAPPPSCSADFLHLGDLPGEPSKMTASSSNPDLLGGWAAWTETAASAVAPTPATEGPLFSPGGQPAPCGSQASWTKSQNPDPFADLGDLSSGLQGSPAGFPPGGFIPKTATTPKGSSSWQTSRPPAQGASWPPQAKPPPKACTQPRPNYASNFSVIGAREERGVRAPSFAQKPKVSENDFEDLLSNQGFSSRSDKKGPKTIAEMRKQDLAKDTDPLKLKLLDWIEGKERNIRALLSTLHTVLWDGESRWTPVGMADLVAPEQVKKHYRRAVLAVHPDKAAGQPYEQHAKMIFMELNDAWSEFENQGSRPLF
# [34] = Cytotoxicity against human HepG2 cells; type: toxicity, cell-based
# [35] = Metabolic stability in dog liver microsomes assessed as half-life; type: ADME, Canis lupus familiaris, Microsome
# [36] = molecular target: BMP-2-inducible protein kinase (Homo sapiens) (UniProt Q9NSY1); assay: Inhibition of wildtype BIKE (unknown origin) at 1 uM relative to control
# CYP2D6 = CYP2D6 (Homo sapiens, UniProt P10635); assay: Inhibition of CYP2D6 (unknown origin) at 10 uM relative to control; type: ADME
# [37] = Half-life in C57BL/6J mouse at 1 mg/kg, iv; type: ADME, organism-based; conditions: in vivo
# [38] = Clearance in rat at 1 mg/kg, iv; type: ADME, organism-based; conditions: in vivo
# [39] = Apparent volume of distribution in C57BL/6J mouse at 1 mg/kg, iv; type: ADME, organism-based; conditions: in vivo, read-out: Vz
# [40] = Oral bioavailability in rat at 10 mg/kg; type: ADME, organism-based; conditions: in vivo
# AP2-associated protein kinase 1, sequence (Q2M2I8 whole entry): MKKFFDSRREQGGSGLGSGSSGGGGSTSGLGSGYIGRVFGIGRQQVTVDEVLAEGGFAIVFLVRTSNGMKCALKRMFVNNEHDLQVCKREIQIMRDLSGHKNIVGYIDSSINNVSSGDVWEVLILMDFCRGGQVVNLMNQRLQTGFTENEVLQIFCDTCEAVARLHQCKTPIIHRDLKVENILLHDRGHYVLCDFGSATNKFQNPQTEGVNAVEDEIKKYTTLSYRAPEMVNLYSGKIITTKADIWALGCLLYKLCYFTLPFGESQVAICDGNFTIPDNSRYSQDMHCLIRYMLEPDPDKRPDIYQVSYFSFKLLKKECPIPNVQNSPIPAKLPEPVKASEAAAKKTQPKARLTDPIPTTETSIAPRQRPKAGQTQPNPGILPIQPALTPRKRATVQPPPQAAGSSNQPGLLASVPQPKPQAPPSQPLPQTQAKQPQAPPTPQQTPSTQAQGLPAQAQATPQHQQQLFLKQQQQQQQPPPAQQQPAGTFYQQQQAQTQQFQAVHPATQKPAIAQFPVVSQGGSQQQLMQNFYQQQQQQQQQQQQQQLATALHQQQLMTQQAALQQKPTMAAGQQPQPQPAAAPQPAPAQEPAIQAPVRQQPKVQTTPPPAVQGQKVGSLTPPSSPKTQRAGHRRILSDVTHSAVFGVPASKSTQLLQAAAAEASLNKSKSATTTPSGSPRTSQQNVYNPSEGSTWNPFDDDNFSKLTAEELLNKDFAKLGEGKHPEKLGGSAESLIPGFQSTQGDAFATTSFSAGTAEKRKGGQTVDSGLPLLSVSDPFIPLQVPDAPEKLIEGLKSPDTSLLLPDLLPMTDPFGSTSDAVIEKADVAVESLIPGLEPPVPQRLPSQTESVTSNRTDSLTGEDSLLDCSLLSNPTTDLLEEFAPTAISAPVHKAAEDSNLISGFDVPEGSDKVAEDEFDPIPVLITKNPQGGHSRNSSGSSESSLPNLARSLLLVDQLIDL
# T1 sequence (P08684 whole entry): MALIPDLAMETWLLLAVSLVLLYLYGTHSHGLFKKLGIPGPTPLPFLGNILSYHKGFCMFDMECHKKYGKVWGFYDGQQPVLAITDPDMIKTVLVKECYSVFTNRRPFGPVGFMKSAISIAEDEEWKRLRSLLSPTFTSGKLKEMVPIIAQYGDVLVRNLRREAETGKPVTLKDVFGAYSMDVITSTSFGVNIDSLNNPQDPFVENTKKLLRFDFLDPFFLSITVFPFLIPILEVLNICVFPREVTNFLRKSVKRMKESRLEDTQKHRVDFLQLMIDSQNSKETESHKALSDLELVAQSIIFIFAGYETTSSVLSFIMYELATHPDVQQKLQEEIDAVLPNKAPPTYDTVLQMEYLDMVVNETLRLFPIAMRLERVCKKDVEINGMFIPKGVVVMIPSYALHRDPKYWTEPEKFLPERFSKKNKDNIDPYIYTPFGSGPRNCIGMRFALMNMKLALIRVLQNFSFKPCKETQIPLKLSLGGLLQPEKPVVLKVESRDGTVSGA
# MAP kinase-interacting serine/threonine-protein kinase 1 (Homo sapiens), sequence (Q9BUB5 whole entry, looked up): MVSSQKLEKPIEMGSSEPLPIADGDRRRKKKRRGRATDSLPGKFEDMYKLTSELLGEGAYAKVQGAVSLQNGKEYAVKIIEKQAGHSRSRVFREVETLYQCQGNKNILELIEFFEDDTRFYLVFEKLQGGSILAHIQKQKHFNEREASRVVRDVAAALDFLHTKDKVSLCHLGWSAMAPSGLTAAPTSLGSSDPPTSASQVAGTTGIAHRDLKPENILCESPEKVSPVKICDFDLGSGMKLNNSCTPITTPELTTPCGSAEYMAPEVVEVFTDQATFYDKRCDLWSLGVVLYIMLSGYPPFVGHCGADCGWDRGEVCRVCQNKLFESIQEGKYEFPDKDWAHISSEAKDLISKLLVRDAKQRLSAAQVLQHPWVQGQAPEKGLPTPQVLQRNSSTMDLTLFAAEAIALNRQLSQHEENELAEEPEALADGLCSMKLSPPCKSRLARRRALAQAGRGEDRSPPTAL
# CYP2C9, sequence (P11712 whole entry): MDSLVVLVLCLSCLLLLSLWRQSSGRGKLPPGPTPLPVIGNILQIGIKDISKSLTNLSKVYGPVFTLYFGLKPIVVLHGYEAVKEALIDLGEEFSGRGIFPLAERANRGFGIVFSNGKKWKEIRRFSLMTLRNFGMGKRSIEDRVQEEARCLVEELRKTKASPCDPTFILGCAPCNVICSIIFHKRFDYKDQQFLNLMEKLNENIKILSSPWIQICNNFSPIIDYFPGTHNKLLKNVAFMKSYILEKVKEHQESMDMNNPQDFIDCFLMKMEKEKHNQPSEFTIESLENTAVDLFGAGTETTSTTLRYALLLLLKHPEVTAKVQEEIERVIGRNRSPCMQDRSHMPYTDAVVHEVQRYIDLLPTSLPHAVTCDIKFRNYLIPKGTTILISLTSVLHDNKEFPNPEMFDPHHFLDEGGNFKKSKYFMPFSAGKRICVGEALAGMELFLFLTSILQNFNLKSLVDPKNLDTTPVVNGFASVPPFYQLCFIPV
# Citron Rho-interacting kinase (Homo sapiens), sequence (O14578 whole entry): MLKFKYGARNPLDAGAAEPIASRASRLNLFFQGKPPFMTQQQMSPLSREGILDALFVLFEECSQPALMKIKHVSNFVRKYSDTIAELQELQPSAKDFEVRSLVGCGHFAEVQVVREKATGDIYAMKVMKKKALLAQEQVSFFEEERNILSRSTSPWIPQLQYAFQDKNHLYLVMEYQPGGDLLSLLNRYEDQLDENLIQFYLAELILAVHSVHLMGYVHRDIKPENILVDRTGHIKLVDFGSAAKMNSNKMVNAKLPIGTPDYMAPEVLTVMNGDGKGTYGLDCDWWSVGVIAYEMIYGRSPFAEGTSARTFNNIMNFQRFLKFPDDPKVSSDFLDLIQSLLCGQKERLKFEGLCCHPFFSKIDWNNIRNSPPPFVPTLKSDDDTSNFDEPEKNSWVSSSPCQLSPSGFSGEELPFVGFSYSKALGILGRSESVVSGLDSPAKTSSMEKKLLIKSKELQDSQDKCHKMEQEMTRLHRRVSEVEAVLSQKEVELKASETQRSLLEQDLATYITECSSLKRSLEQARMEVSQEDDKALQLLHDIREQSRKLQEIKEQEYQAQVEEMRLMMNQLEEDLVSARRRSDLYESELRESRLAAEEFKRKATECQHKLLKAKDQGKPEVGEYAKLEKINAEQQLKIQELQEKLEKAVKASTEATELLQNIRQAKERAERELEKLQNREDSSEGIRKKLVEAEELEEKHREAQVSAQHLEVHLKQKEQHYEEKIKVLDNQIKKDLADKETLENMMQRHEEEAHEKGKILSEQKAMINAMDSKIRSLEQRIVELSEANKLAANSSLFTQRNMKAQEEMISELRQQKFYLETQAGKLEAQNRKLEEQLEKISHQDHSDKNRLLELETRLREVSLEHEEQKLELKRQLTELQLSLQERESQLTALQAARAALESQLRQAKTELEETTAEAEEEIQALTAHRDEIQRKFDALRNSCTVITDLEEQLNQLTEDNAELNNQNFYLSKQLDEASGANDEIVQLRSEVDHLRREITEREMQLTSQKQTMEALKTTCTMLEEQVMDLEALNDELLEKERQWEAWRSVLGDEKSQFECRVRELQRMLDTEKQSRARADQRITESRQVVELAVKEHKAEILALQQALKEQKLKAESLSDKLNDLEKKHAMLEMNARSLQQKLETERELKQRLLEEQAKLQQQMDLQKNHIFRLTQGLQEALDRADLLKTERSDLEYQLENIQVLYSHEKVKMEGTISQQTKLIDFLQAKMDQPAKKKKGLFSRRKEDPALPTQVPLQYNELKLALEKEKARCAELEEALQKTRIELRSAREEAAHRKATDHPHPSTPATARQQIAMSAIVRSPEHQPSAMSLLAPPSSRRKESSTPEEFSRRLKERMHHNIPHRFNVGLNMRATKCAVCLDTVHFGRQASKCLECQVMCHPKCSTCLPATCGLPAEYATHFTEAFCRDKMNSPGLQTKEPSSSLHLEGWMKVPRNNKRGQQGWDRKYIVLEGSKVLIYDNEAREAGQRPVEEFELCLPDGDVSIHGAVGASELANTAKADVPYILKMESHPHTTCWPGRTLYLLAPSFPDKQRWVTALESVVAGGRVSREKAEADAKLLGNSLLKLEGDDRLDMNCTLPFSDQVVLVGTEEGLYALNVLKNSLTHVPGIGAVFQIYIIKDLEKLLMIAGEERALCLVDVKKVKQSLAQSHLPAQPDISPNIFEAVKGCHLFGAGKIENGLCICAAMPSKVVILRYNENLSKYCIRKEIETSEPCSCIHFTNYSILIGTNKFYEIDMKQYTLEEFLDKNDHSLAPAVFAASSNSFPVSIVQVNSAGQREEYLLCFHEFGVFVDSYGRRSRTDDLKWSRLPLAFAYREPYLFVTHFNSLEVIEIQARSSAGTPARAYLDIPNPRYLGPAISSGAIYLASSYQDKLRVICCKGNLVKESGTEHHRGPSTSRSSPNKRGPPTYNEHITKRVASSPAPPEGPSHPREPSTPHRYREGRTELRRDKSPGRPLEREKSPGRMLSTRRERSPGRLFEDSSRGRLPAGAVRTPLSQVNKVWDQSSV
# CYP2D6, sequence (P10635 whole entry): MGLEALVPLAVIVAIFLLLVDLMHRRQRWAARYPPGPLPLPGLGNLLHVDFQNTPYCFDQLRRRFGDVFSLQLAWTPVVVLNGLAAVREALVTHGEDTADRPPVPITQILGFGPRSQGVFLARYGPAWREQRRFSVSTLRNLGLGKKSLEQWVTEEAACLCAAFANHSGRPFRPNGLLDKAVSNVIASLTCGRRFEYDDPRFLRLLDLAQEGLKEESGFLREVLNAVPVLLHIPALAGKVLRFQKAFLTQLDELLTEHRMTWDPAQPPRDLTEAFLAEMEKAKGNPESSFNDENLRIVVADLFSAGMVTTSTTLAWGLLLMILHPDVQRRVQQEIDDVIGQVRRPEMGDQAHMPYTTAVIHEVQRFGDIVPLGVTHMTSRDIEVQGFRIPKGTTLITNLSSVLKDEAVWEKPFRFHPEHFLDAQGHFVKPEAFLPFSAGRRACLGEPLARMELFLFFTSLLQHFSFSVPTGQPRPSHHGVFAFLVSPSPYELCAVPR
structure (smiles),measurement,setting,value
Cc1cnc2c(-c3ccnc(C(F)F)c3)ccc(OC[C@@](C)(N)CC(C)C)n12,IC50,[1],> 0.02 µM
CC(C)C[C@](C)(N)COc1ccc(-c2ccnc(C(F)F)c2)c2cncn12,Cmax,[2],407 ng/mL
same,Tmax,[3],0.8 h
same,AUC(0-t),[4],2340 ng·h/mL
same,half-life,[5],3.2 h
CC(C)C[C@](C)(N)COc1ccc(-c2ccnc(C(F)F)c2)c2nccn12,Tmax,[6],1 h
same,AUC(0-t),[7],4640 ng·h/mL
same,half-life,[8],3.3 h
same,IC50,[9],11.9 µM
same,AUC(0-t),[10],2270 ng·h/mL
same,Vd,[11],25 L/kg
same,fraction unbound,[12],0.193
same,inhibition,[13],88%
same,inhibition,[14],91%
same,clearance,[15],11.7 mL/min/kg
same,fraction unbound,[16],0.128
same,bioavailability,[17],140%
same,half-life,[18],0.717 h
same,inhibition at 10 µM,CYP2C9,< 20%
same,fraction unbound,[19],0.185
same,Tmax,[3],1.2 h
same,half-life,[20],0.583 h
same,AUC(0-t),[4],9150 ng·h/mL
same,half-life,[21],10.3 h
same,fraction unbound,[22],0.129
same,inhibition,[23],60%
same,inhibition at 10 µM,CYP3A4 [24],< 20%
same,bioavailability,[25],103%
same,Tmax,[26],5.3 h
same,inhibition,[27],65%
same,Activity,Rattus norvegicus,Active; Compound Exhibited Comparable Efficacy To Lx9211
same,half-life,[28],46.4 h
same,inhibition at 10 µM,CYP3A4 [29],< 20%
same,clearance,[30],48.3 mL/min/kg
same,half-life,[31],1.47 h
same,Vd,[32],14 L/kg
same,inhibition,[33],97%
same,IC50,[34],51 µM
same,half-life,[35],3.07 h
same,inhibition,[36],39%
same,inhibition at 10 µM,CYP2D6,< 20%
same,half-life,[37],17 h
same,clearance,[38],31.7 mL/min/kg
same,Vd,[39],18 L/kg
same,bioavailability,[40],118%
CC(C)C[C@](C)(N)COc1ccc(-c2ccnc(C(F)F)c2)c2cnccc12,IC50,[1],> 0.05 µM
CC(C)C[C@](C)(N)COc1ccc(-c2ccnc(C(F)F)c2)c2nncn12,IC50,[1],> 0.02 µM
